According to US11357770B2, “Method of treating immunoglobulin light chain amyloidosis” (ALTERITY THERAPEUTICS LIMITED, priority 2016, dated 2022):
Entries after “also recorded” stand apart in the source; their conditions may differ.

What was measured:
[1] = test system: DAF-16; test: DAF-16::GFP nuclear translocation in TJ356 nematodes; type: in vivo, Caenorhabditis elegans; conditions: 100 μg/mL H7-BJ 2 h with 2 nM 1033, 50 μM TETRA or 5 mM NAC
Method: (A) Image of DAF-16::GFP expression in control vehicle-fed and (B) cardiotoxic LC-fed worms (100 μg/mL H7-BJ for 2 h). (C-D) The subcellular distribution of DAF-16 expression in worms fed 2 h: vehicle, 100 μg/mL H7-BJ with or without 2 nM 1033, 50 μM tetracycline (TETRA) or 5 mM N-acetyl-cysteine (NAC). According to DAF-16 localization worms were divided into two phenotypes including “cytosolic” and “nuclear”. The percentage of DAF-16 localization in respect to vehicle fed worms was calculated based on 3 experiments, N=100. Mean±SE. **p<0.01 vs. vehicle, ºp<0.05 and ººp<0.01 vs. cardiotoxic LC, one-way ANOVA and Bonferroni's post hoc test. (E/F) Transgenic worms were fed with 1 mM H2O2 for 30 minutes as a positive control. DAF-16::GFP distribution (E) and HSP-16.2 and SOD-3 expression visualized by GFP-fluorescence (F).
(§1) DAF-16::green fluorescent protein (GFP) nuclear translocation was evaluated in TJ356 nematodes. Pharyngeal expression of HSP-16.2::GFP and SOD-3::GFP was determined in CL2070 and CF1553 worms, respectively. […] Organisms were scored as positive for nuclear localization when green foci were observed throughout the entire body from head to tail and as cytosolic when DAF-16::GFP was diffuse. The number of worms with each level of translocation were counted (at least 100 worms/condition). […] Average pixel intensity values were calculated by sampling images of different animals. […]

[2] = test system: C. elegans; test: C. elegans pharyngeal pumping rate (LC-induced pharyngeal dysfunction); conditions: for ROS generation and pumping dysfunction caused by cardiotoxic LC: 2 nM 1033, 50 μM TETRA or 5 mM NAC with 100 μg/mL LC
Method: Worms were fed for 2 h with 100 μg/mL H7-BJ in the absence or presence of 0-25 nM 1033. Control worms received vehicle alone (dotted line). Each value is the mean±SE, n=30. […] (B) Images obtained from the overlay of a contrast phase and MitoSOX fluorescence (arrows). Scale bar 50 μm. (C) The effects of cardiotoxic LC, 1033, cardotoxic LC+1033, H2O2 and H2O2+1033 on pharyngeal function. (D) The effects of Chelex® and EDTA on LC induced pharyngeal dysfunction.
MM2-BJ (Myeloma) and H7-BJ (Cardiotoxic LC) and in 5 mM PBS, pH 7.4, were administered to worms (100 worms/100 μL) at 100 μg/mL alone or with 50 μM TETRA or 5 mM NAC. Control worms received vehicle alone (Vehicle). After incubation for 2 h in the absence of OP50 E. coli, worms were plated on NGM plates seeded with bacteria.
Bristol N2 strain, transgenic CL2070 dvIs70 Is[hsp-16.2::gfp; rol-6(su1006)], CF1553 muls84 [(pAD76) sod-3p::GFP+rol-6] and TJ356, zls356Is[daf-16::daf-16-gfp; rol-6] were obtained from the Caenorhabditis elegans Genetic Center (CGC, University of Minnesota, USA) and propagated at 20° C. on solid Nematode Growth Medium (NGM) seeded with E. coli OP50 (from CGC) for food. The effect of LC on pharyngeal behaviour was investigated (Diomede et al. 2014). Briefly, ancestral N2 and transgenic CL2070, TJ356 and CF1553 worms were incubated with 100 μg/mL LC listed in Table 1A (100 worms/100 μL) in 5 mM PBS, pH 7.4. Control worms were incubated with 5 mM PBS, pH 7.4 (Vehicle) only. After 2 h of incubation on orbital shaking, worms were transferred onto NGM plates seeded with OP50 E. coli. The pharyngeal pumping rate, measured by counting the number of times the terminal bulb of the pharynx contracted over a 1-minute interval, was scored 20 h later. Experiments were also performed by feeding worms for 2 h with 100 μg/mL of H6-BJ, H7-BJ, H18-BJ, MM2-BJ, MM4-BJ or MM7-BJ alone or with 125 μM copper (as CuSO4).
The experimental conditions of Example 4 were repeated with cardiotoxic LC H7-BJ with or without 1033, Chelex® resin or EDTA as well as 1033, H2O2 and H2O2 together with 1033.

[3] = test system: SOD-3; test: Pharyngeal expression of SOD-3::GFP in CF1553 worms; type: in vivo, Caenorhabditis elegans; conditions: 100 μg/mL H7-BJ + 2 nM 1033, CF1553 worms
Method: (§2) Transgenic worms were fed for 2 h with: Vehicle (i, 5 mM PBS, pH 7.4) 100 μg/mL MM2-BJ (ii, Myeloma), 100 μg/mL H7-BJ (iii, Cardiotoxic LC), or 2 nM 1033 (iv, Cardiotoxic LC+ 1033). (A) Images of the HSP-16.2 expression as overlays of GFP-fluorescence and light microscopy in CL2070 transgenic worms. Scale bar 50 μm. (C) Images of SOD-3 expression as GFP-fluorescence (arrows) in CF1553 transgenic worms. Scale bar 50 μm. Quantified GFP intensity in (B) CL2070 and (D) CF1553 worms in response to treatments. Fluorescence intensity in each group was calculated as mean grey value+SE based on 3 experiments, N=25. **p<0.01 vs. Vehicle and ºp<0.05 and ººp<0.01 vs. Cardiotoxic LC, one-way ANOVA and Bonferroni's post hoc test.
as §1, with “animals. Mean pixel intensity for each experimental group was calculated using Cell-F software (Olympus).” for “animals.”

[4] = test system: C. elegans; test: Pharyngeal function, drugs administered after damage by cardiotoxic LC; type: in vivo, Caenorhabditis elegans; conditions: H7-BJ 1.5 h
Method: Pharyngeal performance of worms fed 100 μg/mL H7-BJ (Cardiotoxic LC) for 1.5 h and then treated for 30 min with 20 µM tetracycline (TETRA), 0.5-2 nM 1033 alone or together with 20 μM TETRA. Control worms fed vehicle alone. **p<0.001, *p<0.005 vs. vehicle, ººp<0.001 vs. Cardiotoxic LC, one-way ANOVA and Bonferroni's post hoc test. §§ p<0.01 significant interaction vs. worms fed Cardiotoxic LC+ 0.5 nM 1033, two-ways ANOVA and Bonferroni's post hoc test.
To reflect circumstances most likely encountered in the clinic drugs were administered to worms when the pharynx was already damaged by cardiotoxic LC. […] Then drugs were administered for 30 min and the pumping rate was scored.
Feeding experiments in which nematodes were fed H7-BJ for 1.5 h to generate pharangeal dysfunction, subsequently 20 μM TETRA, 0.5 nM 1033, 2 nM 1033, 20 μM TETRA and 0.5 nM 1033.

[5] = test system: C. elegans; test: Endogenous metal levels (Cu, Zn, Fe) in C. elegans; type: in vivo, Caenorhabditis elegans; conditions: 100 μg/mL H7-BJ + 2 nM 1033
Method: FIG. 3 provides graphical representations of endogenous metal levels and the effects of added copper on C. elegans pharyngeal function. Worms fed with 100 μg/mL MM2-BJ (myeloma), 100 μg/mL cardiotoxic LC H7-BJ, cardiotoxic LC+ 2 nM 1033, or metal free water (vehicle) were analysed for the amount of endogenous Cu (A), Zn and Fe (B).

[6] = test system: HSP-16.2; test: Pharyngeal expression of HSP-16.2::GFP in CL2070 worms; type: in vivo, Caenorhabditis elegans; conditions: 100 μg/mL H7-BJ + 2 nM 1033, CL2070 worms
Method: as §2
as §1, with “animals. Mean pixel intensity for each experimental group was calculated using Cell-F software (Olympus).” for “animals.”

[7] = test system: C. elegans N2 worms; test: C. elegans life span experiments; type: in vivo, Caenorhabditis elegans
Method: N2 worms (100 worms/100 μL), at L3 larval stage, were fed for 2 h 100 μg/mL of H7-BJ alone or with 2 nM 1033. Worms were then transferred onto fresh NGM plates seeded with E. coli in the presence of the same drug concentration. Control worms were exposed, under the same conditions, to vehicle alone. After 20 h nematodes were transferred to fresh NGM plates seeded with bacteria and the number of live worms was scored (considered as day 0). To avoid overlapping generations, the worms were then transferred every day, in the absence of fluorodeoxyuridine, until they stopped laying eggs. To test the effect of repeated administration of 1033, worms were fed for 2 h 100 μg/mL of H7-BJ and 2 nM 1033 and then transferred onto fresh NGM plates seeded with E. coli in the presence of the same drug concentration. Then nematodes were transferred every day, in a new NGM plate in the presence of freshly dissolved 2 nM 1033. The number of live worms was determined for each consecutive day until all worms were dead.

[8] = Stability of the drug; type: physicochemical
[9] = test system: H7-BJ cardiotoxic LC; test: Amplex Red H2O2 assay; type: biochemical, human; conditions: 100 μg/mL H7-BJ incubated with 2 nM 1033, room temperature
Method: H7-BJ and MM2-BJ proteins (100 μg/mL) in 10 mM sodium phosphate buffer (PB), pH 7.4, were incubated at room temperature in the presence or absence of 50 μM Chelex® resin or 2 nM 5,7-dichloro-8-hydroxy-2-(dimethylaminomethyl)quinoline (1033). Different times after incubation (0-2 h), 2 μL of solutions were put into a 96-well black plate, diluted 1:100 (vol/vol) with 10 mM PBS, pH 7.4, and the amount of H2O2 generated was determined by using the Amplex Red assay kit (Molecular probes, Life Technologies). To this end, 50 μL working solution of 100 μM Amplex Red and 200 mU/mL horseradish peroxidase in 10 mM PB, pH 7.4, was added to each well. The plate was shaken and incubated at room temperature for 30 min, protected from light. The fluorescence was read on a Tecan Infinite M200 microplate reader (Tecan, Austria) at excitation wavelength of 563 nm and emission wavelength of 587 nm. Averages and standard deviations were converted to H2O2 concentrations.

| Compound | activation (nuclear translocation) of DAF-16 induced by the cardiotoxic LC [1] | ROS generation and pumping dysfunction caused by cardiotoxic LC [2] | effect on the pharyngeal pumping dysfunction caused by cardiotoxic LC ([2]; 100 μg/mL H7-BJ with 50 μM TETRA or 5 mM NAC, pumping 20 h after plating) | IC50 ([2]; Caenorhabditis elegans, read-out: IC50 value of TETRA (pharyngeal dysfunction)) [µM] | LC-induced SOD-3 protein expression in the pharynx [3] | maximal recovery of pharangeal function ([4]; then 2 nM 1033) [%] | restoring pharangeal function after damage by H7-BJ ([4]; then 20 μM TETRA or 0.5 nM 1033 alone) | restoring pharyngeal function after damage by H7-BJ ([4]; then drug 30 min, 2 nM 1033 or 20 μM TETRA) | cardiotoxic LC-induced elevation of copper levels in worms [5] | LC-induced HSP-16.2 protein expression in the pharynx [6] | median survival ([7]; H7-BJ + 2 nM/day 1033 (repeated administration), vehicle 13 days) [days] | protective effect on survival, single dose ([7]; single dose of 1033 at 2 nM, H7-BJ-fed worms) | stability under physiological conditions and in a variety of standard solvents [8] | pharyngeal impairment caused by all cardiotoxic LC under investigation ([2]; 2 nM 1033) | pumping rate, 1033 alone ([2]; 1033 alone, no LC) | pharyngeal toxicity induced by exposure to exogenous H2O2 ([2]; H2O2 + 1033) | H2O2 (ROS) production by H7-BJ [9] |
| --- | --- | --- | --- | --- | --- | --- | --- | --- | --- | --- | --- | --- | --- | --- | --- | --- | --- |
| CC(=O)N[C@@H](CS)C(=O)O [NAC, N-acetyl cysteine, reference compound] | not observed | capable of neutralizing | protective effect | – | – | – | – | – | – | – | – | – | – | – | – | – | – |
| CN(C)[C@@H]1C(O)=C(C(N)=O)C(=O)[C@@]2(O)C(O)=C3C(=O)c4c(O)cccc4[C@@](C)(O)[C@H]3C[C@@H]12 [TETRA, tetracycline, reference compound] | – | – | – | 20 | – | – | – | – | – | – | – | – | – | – | – | – | – |
| CN(C)Cc1ccc2c(Cl)cc(Cl)c(O)c2n1 [compound 1033, 5,7-dichloro-8-hydroxy-2-(dimethylaminomethyl)quinoline] | counteracted | capable of neutralizing | – | – | significantly reduced | 53 | no effect | restoring normal pharyngeal function | counteracted | significantly reduced | 13 | No protective effect | extremely stable | completely abolished | did not affect | did not counteract | significantly attenuated; also recorded: did prevent the increase |
